Laboratory results: publication PMC2877039 (Developmental cell, 2010)
pKd: −log10 of the molar value.

Key:
Assay in all cases: liposome co-sedimentation, anti-Sec2 western blot
Assay type in all cases: binding
Sec2p [1] = target: T1, Sec2p (Saccharomyces cerevisiae, UniProt P17065); conditions: read-out: approximate Kd; GST-Sec2p; 0.05-0.5 mM liposomes with 10 mol% PI4P; PBS, 0.4 mg/ml BSA, 25 °C
T1 sequence (P17065 1-759): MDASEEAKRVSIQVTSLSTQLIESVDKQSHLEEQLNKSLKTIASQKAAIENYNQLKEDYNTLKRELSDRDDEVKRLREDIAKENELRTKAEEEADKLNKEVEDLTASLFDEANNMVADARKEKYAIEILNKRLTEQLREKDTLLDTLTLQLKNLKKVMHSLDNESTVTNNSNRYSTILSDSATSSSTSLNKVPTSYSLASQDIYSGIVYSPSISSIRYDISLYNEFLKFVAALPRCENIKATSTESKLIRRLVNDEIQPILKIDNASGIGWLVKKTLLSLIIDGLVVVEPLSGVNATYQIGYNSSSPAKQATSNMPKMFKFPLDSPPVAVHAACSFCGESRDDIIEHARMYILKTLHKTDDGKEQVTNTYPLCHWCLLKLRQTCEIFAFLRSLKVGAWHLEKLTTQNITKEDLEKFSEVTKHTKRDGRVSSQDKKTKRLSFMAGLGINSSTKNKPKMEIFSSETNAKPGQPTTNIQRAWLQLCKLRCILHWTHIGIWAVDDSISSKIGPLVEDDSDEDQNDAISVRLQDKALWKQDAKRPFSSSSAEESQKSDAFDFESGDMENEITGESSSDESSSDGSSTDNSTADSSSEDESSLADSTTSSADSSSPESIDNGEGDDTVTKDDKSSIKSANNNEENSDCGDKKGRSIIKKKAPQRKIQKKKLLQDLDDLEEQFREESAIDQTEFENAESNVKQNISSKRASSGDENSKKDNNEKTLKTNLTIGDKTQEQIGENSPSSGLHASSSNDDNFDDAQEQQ

Sec2p [2] = target: T1, Sec2p; conditions: GST-Sec2; liposomes with 10 mol% PI4P; PBS, 0.4 mg/ml BSA, 25 °C
Sec2p [3] = target: T1, Sec2p; conditions: GST-Sec2; liposomes with 10 mol% PI4P; PBS, 0.4 mg/ml BSA, 25 °C; remark: listed apart in the source
Sec2p [4] = target: T1, Sec2p; conditions: GST-Sec2; liposomes with 10 mol% PI4P; PBS, 0.4 mg/ml BSA, 25 °C; remark: listed apart in the source

Q: Which results are given for PI4P?
A: pKd (Sec2p [1]): ~3.73; PI4P-binding affinity, % of wildtype (Sec2p [2]): ~ 30%; PI4P-binding, % of wildtype (Sec2p [3]): ~ 10%; PI4P-binding affinity, % of wildtype (Sec2p [4]): ~ 30%
